SMILES strings stand for the structures. Where two headings read alike, the source gives them in different places.

Series [1] in a line: Human hepatocyte stability. Type of series: in vitro ADME. As to conditions: human hepatocytes; for half-life: read-out: Hepatocytes (human) T1/2.
A further series concerns rats. The experiment in a line: Core body temperature. Type of series: in vivo, rat. As to the method: Core Body Temperature: Following two days of habituation to the measurement method, the body temperature was measured on study day for baseline values and then again post-dosing in the time points indicated in the figure. Body temperature was measured using a probe gently inserted into the animal anus using a corn oil lubricant (C8267, Sigma-Aldrich, IL).

The nature of series [2]: CYP inhibition / time-dependent inhibition, CYP3A4_Testosterone. Type of series: in vitro ADME. As to conditions: human, liver microsomes, role: inhibitor, substrate testosterone. As to the method:
(§1) The time-dependent inactivation potency of the test compound to CYP enzymatic activities was assessed by the pre-incubation of the human liver microsomes with the test compound in the presence and absence of NADPH, followed by the incubation with the discrete marker substrates, as follows.
(§2) Pre-incubation with human liver microsomes (HLMs): The TDI inactivation potency on CYP enzymatic activities was evaluated through pre-incubation with HLMs (Corning). A liver microsome mixture at a concentration of 0.1 mg/mL, and the test compound at 8 different concentrations (0, 0.05, 0.165, 0.5, 1.65, 5.0, 16.5, or 50.0 μM) was warmed at 37° C. for 10 minutes. Concurrently, a set of known time-dependent inactivators was also prepared in duplicate for comparison. Following this, NADPH (1.0 mM) was added to one group (Group 1), and an equal volume of potassium phosphate buffer to the second group (Group 2), marking the beginning of a 30-minute pre-incubation at 37° C.
(§3) Incubation: After pre-incubation, the marker substrate, or marker substrate plus NADPH was added to the mixture, thereby initiating the incubation. The duration of the incubation was dependent on the type of CYP isoform being evaluated. For example, with the CYP3A isoform, the mixture was incubated over 3 minutes utilizing midazolam as the marker substrate (2.0 μM), verapamil as the standard inactivator (3.5 μM).
(§4) Termination of Reaction: Following the incubation, ice-cooled acetonitrile containing the internal standard (IS) was added to halt the reactions. Metabolites generated from the marker substrates were then measured via LC-MS/MS, assessed based on peak area ratios of the analyte to IS.

For series [3], the system named is Spared Nerve Injury (SNI) rats. The experiment in a line: Spared Nerve Injury (SNI) model, von Frey. Format: in vivo, rat. As for the experimental part:
All animal experiments were carried out according to the Guide for the Care and Use of Laboratory Animals (2011 edition) and approved by the Israel National Institutional Animal Care and Use Committee (IACUC). Young adult male SD rats (Envigo RMS, Israel), were used for in vivo efficacy: Spared Nerve Injury (SNI), Distal Tibial Injury (DTI) and Post-operative Pain (POP), 200-220 grams, Chronic Post-Ischemia Pain (CPIP) 275-325 grams, Monosodium iodoacetate-induced osteoarthritis (MIA-OA) 180-220 grams; for in vivo safety: 200-250 grams at study initiation. […] The health status of the animals used in this study was examined upon their arrival. Only animals in good health were acclimatized to laboratory conditions and were used in the studies. All studies were performed following at least five days of animal acclimation. During acclimation and throughout the entire study duration, animals were housed within a limited-access rodent facility and kept in groups with a maximum of 2-3 rats per polypropylene cage. The cages were fitted with solid bottoms and filled with sterile wood shavings as bedding material. Animals were provided ad libitum with a commercial, sterile rodent diet and had free access to drinking water that was supplied to each cage via polyethylene bottles with stainless steel sipper tubes. A feed lot analysis of the diet batch used in the study was included in the archives with the study data. Water was monitored periodically. Plastic cylinders for playing and hiding and wooden balls or sticks were added to the cages for environmental enrichment.
SNI: The SNI procedure consisted of ligating and dissecting the tibial and common peroneal nerves, thus sparing the sural nerve. Prior to surgery, a dose of 0.03 mg/kg buprenorphine (Temgesic®) was administered to animals as a prophylaxis to alleviate the operative and postoperative pain unrelated to neuropathy. Next, animals were anesthetized with a combination of medetomidine/ketamine sodium IP. While under anesthesia a medio caudal incision of 4-5 mm parallel to the left femur was cut on shaved and disinfected skin. The sciatic nerve was exposed from underneath the muscle layer and isolated gently from the surrounding connective tissue, using curved and blunt forceps. The tibial and common peroneal nerves were first tightly ligated with double knot of 6-0 silk suture, proximally and immediately distal to the sciatic bifurcation. Thereafter, the nerves which run as a pair as physically attached to each other were cut at sites close to the ligatures, thereby removing a length of approximately 0.5 mm of the nerves, necessary to avoid the formation of any re-connection to the nerves. This procedure led to complete denervation of areas of tibial and peroneal innervation in the plantar paw, while neuropathy was developed upon the sural territories. Special care was taken not to manipulate the sural nerve, which thus was left intact. The muscle layers and skin were sutured, and animals were allowed to recover. 0.03 mg/kg buprenorphine SC was administered on postoperative days 1-2, every 12 hours, starting from the evening of Day 0. Rehydration with 4 ml of sterile saline IP was provided directly after the surgery, continuing twice a day for 7 days. The sural nerve innervates the lateral longitudinal third of the plantar paw and therefore, mechanical sensitivity was assessed in this area.
The selection of animals was performed on day 13 post-operation before animals were placed in their experimental groups. Animals with a pain threshold of <4 grams for an operated leg following Von Frey testing were included in the study. To form homogenous treatment groups, all the selected animals were grouped using a random sampling method on study day 13, to form groups with similar pain threshold mean. For blinding purposes, the researcher who dosed the animals with test items was different than the researcher who conducted the VF tests. […]

In another series the target is T1, opioid mu receptor (Homo sapiens, UniProt P35372).
T1 construct: Eurofins DiscoverX, USA (assay provider)
The experiment in a line: Functional selectivity panel, opioid mu receptor. Type of series: biochemical. As to the method: (§5) A broad panel of 78 recombinant targets was tested for pharmacologic activity in vitro through a variety of functional assays (Eurofins DiscoverX, USA), as part of the National Institute of Neurological Disorders and Stroke (NINDS) Preclinical Screening Platform for Pain (PSPP) program. The biological targets for the in vitro profiling have been selected based on avoiding opioid receptor stimulation and targets known to be associated with adverse events or targeted by drugs of abuse. […] For each test, a reference compound was evaluated at the target of interest as a positive control.

Another series addresses T2, CYP2C9 (Homo sapiens, UniProt P11712).
T2 construct: pre-incubation of the human liver microsomes with the test compound; tissue Corning; host or cells: human liver microsomes
Description: CYP inhibition / time-dependent inhibition, CYP2C9_Diclofenac. Type of series: in vitro ADME. To be noted: role: inhibitor. As for the experimental part:
as §1, §2, §3, §4

Another series deals with T3, Kv7.1 (Homo sapiens, UniProt P51787).
T3 construct: Eurofins DiscoverX, USA (assay provider)
The experiment in a line: Kv7.1. Type of series: biochemical. As to the method:
as §5

T2 sequence (P11712 whole entry): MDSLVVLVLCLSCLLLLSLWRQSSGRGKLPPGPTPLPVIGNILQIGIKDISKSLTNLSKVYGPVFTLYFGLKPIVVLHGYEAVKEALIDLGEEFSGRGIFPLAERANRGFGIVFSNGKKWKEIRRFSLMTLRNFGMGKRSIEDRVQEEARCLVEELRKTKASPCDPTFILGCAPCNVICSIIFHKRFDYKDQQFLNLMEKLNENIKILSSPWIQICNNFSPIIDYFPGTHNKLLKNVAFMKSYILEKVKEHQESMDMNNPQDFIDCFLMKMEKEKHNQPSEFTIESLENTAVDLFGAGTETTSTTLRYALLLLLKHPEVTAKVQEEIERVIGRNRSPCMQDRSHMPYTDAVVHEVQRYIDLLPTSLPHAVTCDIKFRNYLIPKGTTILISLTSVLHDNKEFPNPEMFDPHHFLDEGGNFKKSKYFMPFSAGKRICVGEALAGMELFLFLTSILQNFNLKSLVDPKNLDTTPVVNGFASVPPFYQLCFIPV
T3 sequence (P51787 whole entry): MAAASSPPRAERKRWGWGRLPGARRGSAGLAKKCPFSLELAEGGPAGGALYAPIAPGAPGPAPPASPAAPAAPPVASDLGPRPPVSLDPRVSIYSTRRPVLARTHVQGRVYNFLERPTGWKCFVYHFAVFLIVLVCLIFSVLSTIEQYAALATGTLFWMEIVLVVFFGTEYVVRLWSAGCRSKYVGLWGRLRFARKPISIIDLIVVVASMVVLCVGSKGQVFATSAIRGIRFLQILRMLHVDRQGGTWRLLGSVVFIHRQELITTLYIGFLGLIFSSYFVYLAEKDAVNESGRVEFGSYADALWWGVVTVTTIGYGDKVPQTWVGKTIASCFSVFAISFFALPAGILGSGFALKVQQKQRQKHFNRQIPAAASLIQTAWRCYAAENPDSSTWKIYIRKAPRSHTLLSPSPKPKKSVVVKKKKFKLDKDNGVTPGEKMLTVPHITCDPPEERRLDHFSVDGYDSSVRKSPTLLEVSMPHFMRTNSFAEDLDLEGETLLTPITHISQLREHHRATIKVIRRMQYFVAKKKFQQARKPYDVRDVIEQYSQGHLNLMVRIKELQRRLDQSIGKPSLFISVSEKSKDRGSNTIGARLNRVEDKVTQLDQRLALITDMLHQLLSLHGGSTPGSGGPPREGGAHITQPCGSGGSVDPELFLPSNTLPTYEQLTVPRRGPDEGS
T1 sequence (P35372 whole entry): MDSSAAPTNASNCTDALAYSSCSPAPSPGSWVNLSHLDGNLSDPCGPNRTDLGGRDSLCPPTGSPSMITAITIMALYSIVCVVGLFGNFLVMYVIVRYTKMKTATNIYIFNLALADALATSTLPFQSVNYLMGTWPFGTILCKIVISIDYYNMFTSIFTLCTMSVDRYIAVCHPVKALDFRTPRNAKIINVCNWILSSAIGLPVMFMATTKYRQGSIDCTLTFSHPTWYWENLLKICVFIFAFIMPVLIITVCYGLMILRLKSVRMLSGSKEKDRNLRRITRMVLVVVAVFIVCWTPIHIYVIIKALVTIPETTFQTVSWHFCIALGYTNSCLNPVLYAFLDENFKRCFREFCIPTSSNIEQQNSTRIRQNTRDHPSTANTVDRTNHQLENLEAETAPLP

Consider `O=C(Cc1cc(-n2cc(Cl)c3cc(Cl)cc(Cl)c32)ccc1F)NCCO` [Compound 627], for which, in series [1], the CLint scaled was 190 mL/min/kg and the half-life came to 20.3 min.
Regarding `O=C(Cc1nccc(-n2cc(Cl)c3cc(Cl)cc(Cl)c32)n1)NC1COCC1O` (centres unmarked) [Compound 760], in the series with rats (up to 300 mg/kg oral), the “Core body temperature” value is on record as “displayed safety potential at up to 300 mg/kg oral dosing”. Besides, the IC50 in series [2] (Table 9, read-out: CYP inhibition IC50 CYP3A-Testosterone) stood at 19.8 µM; at CYP2C9 (Table 9, read-out: CYP inhibition IC50 CYP2C9) it was 44.3 µM. Also, the “Pain relief in SNI” value in series [3] (3-30 mg/kg PO) is “pain relief comparable to Pregabalin's high and impairing dose”. In addition, the minimal effective dose in series [3] (Rattus norvegicus, po) was in the range of 3 to 30 mg/kg. The “Effect on Opioid mu” value at opioid mu receptor (up to 10 micromolar) is listed as “no effect”. Also, on Kv7.1 (up to 10 micromolar), the “Effect on Kv7.1” value is given as “no effect”.
With `O=C(Cc1cncc(-n2cc(Cl)c3cc(Cl)cc(Cl)c32)c1)N[C@@H]1COC[C@H]1O` [Compound 661], the “Core body temperature” value is reported as “no significant change in core body temperature” in the series with rats (20 and 50 mg/kg PO); “no effects on core body temperature” in the series on rats (up to 300 mg/kg, 1-24 hours post-dose). The half-maximal inhibitory concentration (IC50) at 0.5 h was determined as 7.36 µM in series [2] ((+)NADPH pre-incubation) and 10.1 µM in series [2] ((−)NADPH pre-incubation). For the same molecule, the “PWT efficacy” value in series [3] (2 mg/kg PO) was “although not reaching statistical significance, showed an efficacious trend”; in series [3] (20 mg/kg PO, up to 8 hour post-dose), “remained statistically significant up to 8 hour post-dose”. The “Reversal of PWT” value in series [3] (20 mg/kg PO, 4 hour post-dose) is listed as 53%. In series [3] (100 mg/kg oral, 6 hour post-dose), the “Reversal of mechanical PWT” value is 47.2%. In series [1], this molecule had a CLint scaled of 73.8 mL/min/kg. For the same molecule, the half-life in series [1] came to 52.2 min. Moreover, the IC50 is 6 µM on opioid mu receptor; 13 µM at CYP2C9 ((+)NADPH pre-incubation, substrate diclofenac, read-out: IC50 (+)NADPH CYP2C9_Diclofenac); 14.8 µM on CYP2C9 ((−)NADPH pre-incubation, substrate diclofenac, read-out: IC50 (−)NADPH CYP2C9_Diclofenac). Also, on Kv7.1 (up to solubility limit), the Kv7.1 activity entry was “no measurable activity at any concentration tested”.

For the origin of these results see patent publication US20260327211A1, “MODULATORS OF A POTASSIUM CHANNEL AND OF TRPV1 CHANNEL AND USES THEREOF” (Bsense Bio Therapeutics Ltd., priority 2023, published 2026).
